Experimental data published in publication PMC9262865 (Chembiochem, 2022).

Columns and labels:
[1] = target: T1, tyrosine phenol-lyase (M379A TPL) (Citrobacter freundii, UniProt P31013, M379A); assay: LDH-coupled steady-state kinetics of purified enzyme; type: biochemical
[2] = target: T1, tyrosine phenol-lyase (M379A TPL); assay: X-ray crystal structure; type: binding
[3] = target: tyrosine phenol-lyase (wild type TPL) (Citrobacter freundii, UniProt P31013); assay: absorbance titration at […] nm; type: binding

| Compound | M379A TPL / k cat/K M, M^-1 s^-1 [1] | Kd [2] [µM] | Kd [3] [µM] |
| --- | --- | --- | --- |
| N[C@@H](Cc1ccc(O)c(F)c1)C(=O)O [compound 3, 3-F-L-tyrosine] | 774 M^-1 s^-1 (kcat/KM) | – | – |
| CSCC[C@H](N)C(=O)O [L-methionine] | – | 1740 | 790 |
| N[C@@H](Cc1ccc(O)cc1)C(=O)O [compound 1, L-tyrosine] | 148 M^-1 s^-1 (kcat/KM) | – | – |
